From BindingDB's records for PubMed 36416208 (n/a, 2022) come the findings set out here.

This assay has as its target Serine/threonine-protein kinase PAK 1 (Homo sapiens, UniProt Q13153). As to the kind of experiment: Inhibition of human recombinant PAK1 assessed as phosphorylation FRET peptide substrate measured after 60 mins.

Serine/threonine-protein kinase PAK 1, sequence (Q13153 whole entry): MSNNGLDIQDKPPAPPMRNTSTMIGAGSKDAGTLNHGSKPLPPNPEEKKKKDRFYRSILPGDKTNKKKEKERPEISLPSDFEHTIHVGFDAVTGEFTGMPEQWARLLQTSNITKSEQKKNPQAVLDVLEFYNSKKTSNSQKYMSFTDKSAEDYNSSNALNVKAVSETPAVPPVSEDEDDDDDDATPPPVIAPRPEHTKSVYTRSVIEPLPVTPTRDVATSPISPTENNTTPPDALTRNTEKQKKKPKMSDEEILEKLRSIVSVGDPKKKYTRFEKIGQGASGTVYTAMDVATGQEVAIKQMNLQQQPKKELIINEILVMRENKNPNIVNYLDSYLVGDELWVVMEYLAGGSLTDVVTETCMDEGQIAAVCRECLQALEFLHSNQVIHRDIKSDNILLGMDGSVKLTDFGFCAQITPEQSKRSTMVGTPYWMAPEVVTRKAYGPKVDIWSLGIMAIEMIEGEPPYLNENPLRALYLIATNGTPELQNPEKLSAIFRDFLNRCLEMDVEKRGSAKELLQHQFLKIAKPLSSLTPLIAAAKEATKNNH

For `CN1C(=O)CCC(N2C(=O)c3cccc(NCCCCCCCCNC(=O)N4CC[C@H](NC5=Nc6cc(F)ccc6N(CC(F)F)c6ccc(Cl)cc65)C4)c3C2=O)C1=O` (stereo partly specified), the 50% inhibitory concentration (IC50) was 233 nM.

One may read the IC50 as the midpoint of a concentration-inhibition curve.
